Source: patent US20210283099A1, “CDC7 KINASE INHIBITORS AND USES THEREOF” (SLOAN-KETTERING INSTITUTE FOR CANCER RESEARCH, priority 2010, published 2021)

Test system: HeLa cells
Test: S phase checkpoint western blot analysis
Type: cell-based, human
Conditions: SDS-PAGE and western blot
Procedure: FIG. 15. […] HeLa cells were incubated in the presence of granaticin A or carrier control (DMSO) for the indicated times and whole cell extracts were subjected to SDS-PAGE and western blot analysis. Asyn=asynchronously growing HeLa cells. HU=HeLa cells exposed to hydroxyurea for the indicated time. HU was used as a control for DNA damaging agent that is known to […] the DNA damage checkpoint response. Again, we observed that Mcm2 mobility is shifted in the cells treated with granaticin A. MCM2 mobility is not affected by HU. Activation of the DNA damage/replication checkpoint correlates with ATM/ATR dependent phosphorylation of Chk1 at Ser345.

SMILES: NC(=O)NO [HU, hydroxyurea, reference compound]
- Mcm2 mobility: not affected
